Source: ChEMBL document CHEMBL6115010, “Targeting glioma with heteroaromatic alkaloids: A review of potential therapeutics” (Bioorg Med Chem, 2025)

Columns and labels:
[1] = Cytotoxicity against human U-343MG cells; assay type: functional, cell-based
[2] = Induction of apoptosis in human U373 MG cells at 1 uM relative to control; assay type: functional, U-373MG ATCC
[3] = biological target: T1, Dual specificity tyrosine-phosphorylation-regulated kinase 1A (Homo sapiens, UniProt Q13627); assay: Inhibition of DYRK1A (unknown origin) incubated for 2 hrs in presence of [gamma-33P]-ATP by radioactivity based assay
[4] = biological target: T1, Dual specificity tyrosine-phosphorylation-regulated kinase 1A; assay: Inhibition of DYRK1A (unknown origin) by TR-FRET assay
[5] = test system: U-251; assay: Induction of apoptosis in human U-251MG cells assessed as increase in PARP cleavage at 12.5 to 100 uM incubated for 24 hrs by Western blot analysis; assay type: functional; conditions: dose 12.5-100 µM
[6] = test system: U-87 MG; assay: Antitumor activity against human U-87 MG cells xenografted in mouse model assessed as reduction in tumor growth at 15 mg/kg, ip administered once daily for 5 days relative to control; assay type: functional, U-87MG ATCC; design: scale not given: the % may be the effect or the level left; conditions: time 5 day
[7] = test system: U-87 MG; assay: Antiproliferative activity against human U-87 MG cells assessed as reduction in cell viability incubated for 72 hrs by Presto-Blue cell viability assay; assay type: functional, cell-based, U-87MG ATCC
[8] = test system: U-87 MG; assay: Antitumor activity against human U-87 MG cells xenografted in mouse model assessed as reduction in tumor growth at 60 mg/kg, ip administered once daily for 5 days relative to control; assay type: functional, U-87MG ATCC; design: scale not given: the % may be the effect or the level left; conditions: time 5 day
[9] = test system: H4; assay: Antiproliferative activity against human H4 cells assessed as reduction in cell viability incubated for 72 hrs by Presto-Blue cell viability assay; assay type: functional, cell-based; conditions: H4, 72 h
[10] = test system: T98G; assay: Antiproliferative activity against human T98G cells assessed as reduction in cell viability incubated for 72 hrs by WST-8 reagent based assay; assay type: functional
[11] = test system: U-87 MG; assay: Antiproliferative activity against human U-87 MG cells assessed as reduction in cell viability incubated for 72 hrs by WST-8 reagent based assay; assay type: functional, U-87MG ATCC
[12] = test system: U-251; assay: Cytotoxicity against human U-251MG cells assessed as reduction in cell growth incubated for 72 hrs by MTT assay; assay type: functional, cell-based; conditions: U-251, 72 h
[13] = test system: U-251; assay: Cytotoxicity against human U-251MG cells assessed as reduction in cell growth measured for 48 hrs by MTT assay; assay type: functional, cell-based; conditions: U-251, 48 h
[14] = test system: U-251; assay: Antitumor activity against human U-251MG cells xenografted in BALB/c nude mouse assessed as reduction in tumor growth at 4 mg/kg, ip administered once daily and measured after 28 days relative to control; assay type: functional; conditions: U-251, 672 h, time 28 day, read-out: TGI
[15] = test system: U-87 MG; assay: Cytotoxicity against human U-87 MG cells assessed as reduction in cell growth measured for 48 hrs by MTT assay; assay type: functional, cell-based, U-87MG ATCC
[16] = test system: U-251; assay: Antitumor activity against human U-251MG cells xenografted in BALB/c nude mouse assessed as reduction in tumor growth at 8 mg/kg, ip administered once daily and measured after 28 days relative to control; assay type: functional; conditions: U-251, 672 h, time 28 day, read-out: TGI
[17] = test system: U-87 MG; assay: Antiproliferative activity against human U-87 MG cells by MTT assay; assay type: functional, cell-based, U-87MG ATCC
[18] = test system: C6; assay: Antiproliferative activity against rat C6 cells by MTT assay; assay type: functional, cell-based
[19] = test system: U-87 MG; assay: Antiproliferative activity against human U-87 MG cells measured for 48 hrs by MTT assay; assay type: functional, cell-based, U-87MG ATCC
[20] = Cytotoxicity against human M059K cells assessed as reduction in cell viability incubated for 72 hrs by MTT assay; assay type: functional, cell-based
[21] = test system: M059J; assay: Cytotoxicity against human M059J cells assessed as reduction in cell viability incubated for 72 hrs by MTT assay; assay type: functional, cell-based
[22] = Anticancer activity against human U373 MG cells assessed as reduction in cell viability incubated for 72 hrs by MTT assay; assay type: functional, cell-based, U-373MG ATCC
[23] = test system: CAKI-1; assay: Antitumor activity against human CAKI-1 cells xenografted in BALB/c athymic nude mouse assessed as inhibition of tumor growth at 5 mg/kg, po administered 5 times per week and measured for 3 times per week for 42 days relative to control; assay type: functional; conditions: CAKI-1, 1008 h, time 42 day, read-out: TGI
[24] = test system: U-251; assay: Cytotoxicity against human U-251MG cells assessed as reduction in cell growth; assay type: functional, cell-based

Q: With `C=C[C@H]1CN2CCc3c([nH]c4c([C@@H]5CCCN5C)c(O)ccc34)[C@@H]2C[C@@H]1C[C@H]1c2[nH]c3ccccc3c2CCN1C` as the compound, how does the IC50 [1] read?
A: ~1 µM

Q: And the Activity [2]?
A: 80%

Q: For `Cc1nccc2c1[nH]c1cc(O)ccc12`, which IC50 [3] is on record?
A: 0.016 µM

Q: What about the IC50 [4] of the same compound?
A: 0.07 µM

Q: What about the Activity [5] of the same compound?
A: 486%

Q: What about the Activity [6] of the same compound?
A: 28.2%

Q: And the IC50 [7]?
A: 19.1 µM

Q: What about the Activity [8] of the same compound?
A: 38.1%

Q: What about the IC50 [9] of the same compound?
A: 10.9 µM

Q: Which EC50 [10] does the source give for `COc1ccc2c3c(c4cc(OC)c(OC)cc4c2c1)CN1CCC[C@H]1C3` here?
A: 40 µM

Q: What about the EC50 [11] of the same compound?
A: 29 µM

Q: And the IC50 [12]?
A: 3.34 µM

Q: What does the source list for `c1ccc2c(c1)[nH]c1c2cc[n+]2cc3c(cc12)CCCC3`?
A: IC50 [13]: 4.98 µM; inhibition in vivo at 4 mg/kg [14]: 49.5%; IC50 [15]: 4.71 µM; inhibition in vivo at 8 mg/kg [16]: 58.9%

Q: With `CN1c2ccccc2C(=O)N2CCc3c([nH]c4ccccc34)[C@H]21` as the compound, how does the IC50 [17] read?
A: 3.7 µM

Q: And the IC50 [18]?
A: 4.3 µM

Q: What about the IC50 [19] of the same compound?
A: 5.21 µM

Q: With `COc1cc2c(cc1O)CCN[C@]21CS[C@@H]2c3c(OC(C)=O)c(C)c4c(c3[C@@H](COC1=O)N1[C@@H]2[C@H]2c3c(cc(C)c(OC)c3O)C[C@@H]([C@@H]1O)N2C)OCO4` as the compound, how does the IC50 [20] read?
A: 0.0002 µM

Q: What about the IC50 [21] of the same compound?
A: 0.041 nM

Q: Which IC50 [22] does the source give for `COc1cc2c(cc1O)CCN[C@]21CS[C@@H]2c3c(OC(C)=O)c(C)c4c(c3[C@@H](COC1=O)N1[C@@H]2[C@H]2c3c(cc(C)c(OC)c3O)C[C@@H]([C@@H]1C#N)N2C)OCO4` here?
A: 0.0031 µM

Q: For `COc1ccc2c3c(c4cc(OC)c(OC)cc4c2c1)C[C@H]1CCCN1C3` [(-)-ANTOFINE], which inhibition in vivo at 5 mg/kg [23] is on record?
A: 59%

Q: And the IC50 [24]?
A: 0.211 µM
